# Results: patent publication US20050107386A1, “Methods of treating diseases and disorders by targeting multiple kinases” (priority 2003, published 2005)
# Legend:
# Format in all cases: biochemical
# MEK1(h) = MEK1(h) (Homo sapiens, UniProt Q02750); assay: MEK1(h) kinase assay; details: for Inhibitory activity (% of control), MEK1(h): 3 μM, percent of control kinase activity
# Procedure: (§1) Six compounds (presumptive single agents) were tested against a panel of 50 kinases. The results are presented in Table 2; numbers for each kinase indicate the percent of control kinase activity in the presence of a 3μM concentration of the indicated agent.
# (§2) Agents that target two or more different kinases are useful in the methods of the invention as described elsewhere herein. Such compounds may be identified, and their effect on certain kinases may be identified, using the assays briefly described below in Examples 4-83. Each of these assays was carried out as described in Davies et al., Biochem. J., 351:95-105 (2000). All assays were carried out at 10 μM ATP unless otherwise noted.
# The reaction is initiated by the addition of the MgATP. After incubation for 40 minutes at room temperature, 5 μl of this incubation mix is used to initiate a MAPK2 (m) assay, which is described on […].
# IR(h) = IR(h) (Homo sapiens, UniProt P06213); assay: IR(h) kinase assay; details: 3 μM; percent of control kinase activity
# Chain of IR(h) (P06213 28-1382): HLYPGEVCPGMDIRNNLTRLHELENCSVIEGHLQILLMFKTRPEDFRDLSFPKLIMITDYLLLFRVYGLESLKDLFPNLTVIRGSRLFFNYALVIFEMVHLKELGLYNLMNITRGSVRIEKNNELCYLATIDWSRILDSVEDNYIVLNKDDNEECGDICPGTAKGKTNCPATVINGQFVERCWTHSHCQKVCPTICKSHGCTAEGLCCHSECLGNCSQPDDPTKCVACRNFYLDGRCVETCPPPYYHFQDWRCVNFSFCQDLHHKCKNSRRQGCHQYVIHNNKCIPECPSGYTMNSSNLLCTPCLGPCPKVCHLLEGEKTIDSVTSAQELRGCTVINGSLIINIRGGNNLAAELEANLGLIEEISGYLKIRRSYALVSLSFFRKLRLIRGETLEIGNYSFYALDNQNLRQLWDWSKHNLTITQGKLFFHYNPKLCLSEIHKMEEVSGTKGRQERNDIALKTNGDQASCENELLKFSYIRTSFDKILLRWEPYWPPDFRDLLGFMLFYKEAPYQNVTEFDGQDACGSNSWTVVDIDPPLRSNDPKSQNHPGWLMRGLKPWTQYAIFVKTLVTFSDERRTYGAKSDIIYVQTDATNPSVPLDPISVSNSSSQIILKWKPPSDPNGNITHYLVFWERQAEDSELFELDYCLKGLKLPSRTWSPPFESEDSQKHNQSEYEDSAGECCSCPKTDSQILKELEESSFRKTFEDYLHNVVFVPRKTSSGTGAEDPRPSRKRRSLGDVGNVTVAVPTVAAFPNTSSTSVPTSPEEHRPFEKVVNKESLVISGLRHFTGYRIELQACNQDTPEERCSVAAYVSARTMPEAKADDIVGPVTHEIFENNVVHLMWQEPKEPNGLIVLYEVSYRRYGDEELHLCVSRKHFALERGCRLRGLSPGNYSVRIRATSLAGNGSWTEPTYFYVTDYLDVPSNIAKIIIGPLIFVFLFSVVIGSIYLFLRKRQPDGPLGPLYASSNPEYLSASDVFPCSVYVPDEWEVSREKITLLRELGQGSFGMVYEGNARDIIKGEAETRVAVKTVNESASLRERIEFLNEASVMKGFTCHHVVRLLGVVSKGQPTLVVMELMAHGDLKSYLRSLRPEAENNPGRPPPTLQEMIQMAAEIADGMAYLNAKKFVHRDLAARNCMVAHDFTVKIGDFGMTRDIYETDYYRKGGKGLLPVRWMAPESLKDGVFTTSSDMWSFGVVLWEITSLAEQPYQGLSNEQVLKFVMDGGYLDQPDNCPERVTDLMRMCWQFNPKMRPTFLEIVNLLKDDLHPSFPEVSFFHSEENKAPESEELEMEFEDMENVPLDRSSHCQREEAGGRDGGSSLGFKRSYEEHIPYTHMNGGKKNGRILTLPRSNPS
# Procedure: as §1, §2
# In a final reaction volume of 25 μl, IR (h) (5-10 mU) is incubated with 50 mM Tris pH 7.5, 0.1 mM EGTA, 0.1 mM NaVanadate, 0.1% β-mercaptoethanol, 250 μM […] (SEQ ID NO: 15), 10 mM MnCl2, 10 mM MgAcetate and [γ-^33P-ATP] (Specific activity approx. 500 cpm/pmol, concentration as required). The reaction is initiated by the addition of Mg^2+ [γ-^33P-ATP]. After incubation for 40 minutes at room temperature, the reaction is stopped by the addition of 5 μl of a 3% phosphoric acid solution. 10 μl of the reaction is then spotted onto a P30 filtermat and washed three times for 5 minutes in 75 mM phosphoric acid and once in methanol prior to drying and scintillation counting.
# SGK(h) = molecular target: T1, SGK(h) (Homo sapiens, UniProt O00141); assay: SGK(h) kinase assay; details: 3 μM; percent of control kinase activity
# T1 sequence (O00141 1-431): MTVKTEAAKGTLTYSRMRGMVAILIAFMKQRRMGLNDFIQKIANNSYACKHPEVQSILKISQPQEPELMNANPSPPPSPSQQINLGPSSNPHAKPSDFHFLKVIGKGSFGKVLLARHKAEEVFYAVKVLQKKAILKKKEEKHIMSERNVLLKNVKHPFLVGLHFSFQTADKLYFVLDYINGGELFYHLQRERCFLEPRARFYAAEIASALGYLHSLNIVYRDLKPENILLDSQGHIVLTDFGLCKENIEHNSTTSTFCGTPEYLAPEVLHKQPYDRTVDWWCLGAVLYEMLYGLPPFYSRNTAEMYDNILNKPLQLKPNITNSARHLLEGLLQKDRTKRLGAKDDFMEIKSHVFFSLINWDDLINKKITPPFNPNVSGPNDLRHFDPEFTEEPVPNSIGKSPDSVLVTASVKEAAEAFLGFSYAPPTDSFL
# Procedure: as §1, §2
# In a final reaction volume of 25 μl, SGK(h) (5-10 mU) is incubated with 8 mM MOPS pH 7.0, 0.2 mM EDTA, 30 μM […] (SEQ ID NO:2), 10 mM MgAcetate and [γ-^33P-ATP] (specific activity approx. 500 cpm/pmol, concentration as required). The reaction is initiated by the addition of Mg^2+[γ-^33P-ATP]. After incubation for 40 minutes at room temperature, the reaction is stopped by the addition of 5 μl of a 3% phosphoric acid solution. 10 μl of the reaction is then spotted onto a P30 filtermat and washed three times for 5 minutes in 75 mM phosphoric acid and once in methanol prior to drying and scintillation counting.
# PKA(h) = PKA(h) (Homo sapiens, UniProt P17612); assay: PKA(h) kinase assay; details: 3 μM; percent of control kinase activity
# Procedure: as §1, §2
# In a final reaction volume of 25 μl, PKA(h) (5-10 mU) is incubated with 8 mM MOPS pH 7.0, 0.2 mM EDTA, 30 μM LRRASLG (Kemptide; SEQ ID NO:10), 10 mM MgAcetate and [γ-^33P-ATP] (specific activity approx. 500 cpm/pmol, concentration as required). The reaction is initiated by the addition of Mg^2+ [γ-^33P-ATP]. After incubation for 40 minutes at room temperature, the reaction is stopped by the addition of 5 [Il of a 3% phosphoric acid solution. 10 μl of the reaction is then spotted onto a P30 filtermat and washed three times for 5 minutes in 50 mM phosphoric acid and once in methanol prior to drying and scintillation counting.
# cSRC(h) = cSRC(h) (Homo sapiens, UniProt P12931); assay: cSRC(h) kinase assay; details: for Inhibitory activity (% of control), cSRC(h): 3 μM, percent of control kinase activity
# Chain of cSRC(h) (P12931 whole entry): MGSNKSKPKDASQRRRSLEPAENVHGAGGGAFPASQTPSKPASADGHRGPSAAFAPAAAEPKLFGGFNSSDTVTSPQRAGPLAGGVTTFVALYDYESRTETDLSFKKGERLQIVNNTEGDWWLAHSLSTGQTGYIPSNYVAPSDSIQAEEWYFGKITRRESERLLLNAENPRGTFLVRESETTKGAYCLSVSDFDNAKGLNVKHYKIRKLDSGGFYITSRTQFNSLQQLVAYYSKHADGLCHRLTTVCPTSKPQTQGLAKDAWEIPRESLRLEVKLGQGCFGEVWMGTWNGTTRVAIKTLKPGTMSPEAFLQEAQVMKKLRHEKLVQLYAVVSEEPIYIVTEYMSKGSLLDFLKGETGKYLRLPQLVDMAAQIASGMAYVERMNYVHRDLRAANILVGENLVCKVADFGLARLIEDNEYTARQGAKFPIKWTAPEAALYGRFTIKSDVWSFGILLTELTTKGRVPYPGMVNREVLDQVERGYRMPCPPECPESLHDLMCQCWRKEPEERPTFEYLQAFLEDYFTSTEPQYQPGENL
# Procedure: as §1, §2
# In a final reaction volume of 25 μl, cSRC (h) (5-10 mU) is incubated with 8 mM MOPS pH 7.0, 0.2 mM EDTA, 250 μM […] (Cdc2 peptide; SEQ ID NO:7), 10 mM MgAcetate and [γ-^33P-ATP] (Specific activity approx. 500 cpm/pmol, concentration as required). The reaction is initiated by the addition of Mg^2+ [γ-^33P-ATP]. After incubation for 40 minutes at room temperature, the reaction is stopped by the addition of 5 μl of a 3% phosphoric acid solution. 10 μl of the reaction is then spotted onto a P30 filtermat and washed three times for 5 minutes in 75 mM phosphoric acid and once in methanol prior to drying and scintillation counting.
# Chain of MEK1(h) (Q02750 whole entry): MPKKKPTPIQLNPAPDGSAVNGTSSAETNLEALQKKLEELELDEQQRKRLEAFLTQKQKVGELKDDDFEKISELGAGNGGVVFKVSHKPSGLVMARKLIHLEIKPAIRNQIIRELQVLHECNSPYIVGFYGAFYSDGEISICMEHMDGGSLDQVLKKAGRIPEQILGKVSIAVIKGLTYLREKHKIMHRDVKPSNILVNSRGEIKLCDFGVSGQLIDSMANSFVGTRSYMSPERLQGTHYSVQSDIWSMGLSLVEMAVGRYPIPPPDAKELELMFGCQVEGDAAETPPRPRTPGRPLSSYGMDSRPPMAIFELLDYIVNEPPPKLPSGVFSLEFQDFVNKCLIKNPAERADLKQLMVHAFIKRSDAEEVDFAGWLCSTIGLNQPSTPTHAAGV
smiles,measurement,setting,value
"COc1ccc2cc(-c3n[nH]c4ccc(-c5n[nH]c(CN6CCOCC6)n5)cc34)ccc2c1 [CC001, 3-(6-Methoxynaphthalen-2-yl)-5-(5-Morpholin-4-Ylmethyl-1H-[1,2,4]Triazol-3-yl)-1H-Indazole]","Inhibitory activity (% of control), MEK1(h)",MEK1(h),4 % of control
same,"Inhibitory activity (% of control), IR(h)",IR(h),74 % of control
same,"Inhibitory activity (% of control), SGK(h)",SGK(h),56 % of control
same,"Inhibitory activity (% of control), PKA(h)",PKA(h),60 % of control
same,"Inhibitory activity (% of control), cSRC(h)",cSRC(h),2 % of control
"CC(C)(C)Cc1nc(-c2ccc3[nH]nc(-c4ccc5cc(OCc6ccccn6)ccc5c4)c3c2)n[nH]1 [CC004, 5-[5-(2,2-Dimethyl-propyl)-1H-[1,2,4]triazol-3-yl]-3-[6-(pyridine-2-ylmethoxy)-naphthalen-2-yl]-1H-indazole]","Inhibitory activity (% of control), MEK1(h)",MEK1(h),11 % of control
same,"inhibitory activity against MEK1, in words",MEK1(h); summary of Table 2,good inhibitory activity
same,"Inhibitory activity (% of control), IR(h)",IR(h),89 % of control
same,"Inhibitory activity (% of control), SGK(h)",SGK(h),33 % of control
same,"Inhibitory activity (% of control), PKA(h)",PKA(h),91 % of control
same,"Inhibitory activity (% of control), cSRC(h)",cSRC(h),67 % of control
same,"inhibitory activity against cSrc, in words",cSRC(h); summary of Table 2,somewhat less inhibitory activity
"CCN1CCC[C@H]1COc1ccc2cc(-c3n[nH]c4ccc(-c5nc(CC(C)(C)C)n[nH]5)cc34)ccc2c1 [CC005, 2-[((2s)-1-ethylpyrrolidin-2-yl)methoxy]-6-{5-[3-(2,2-Dimethylpropyl)(1H-1,2,4,-triazol-5-yl)](1H-indazol-3-yl)}naphthalene]","Inhibitory activity (% of control), MEK1(h)",MEK1(h),2 % of control
same,"Inhibitory activity (% of control), IR(h)",IR(h),31 % of control
same,"Inhibitory activity (% of control), SGK(h)",SGK(h),4 % of control
same,"Inhibitory activity (% of control), PKA(h)",PKA(h),50 % of control
same,"Inhibitory activity (% of control), cSRC(h)",cSRC(h),3 % of control
